Here are results for 12 molecules from US5663296A, “Hydroxamate inhibitors of endothelin converting enzyme” (Warner-Lambert Company, priority 1995, dated 1997).

For one experiment, the system named is allergic sheep. Conditions: cited from earlier work.
The test system of the next experiment is mouse. The conditions noted are these: mouse model of endotoxic shock; cited from earlier work.
The target of experiment [1] is T1, endothelin converting enzyme (ECE) (Homo sapiens, UniProt P42892).
T1 sequence (P42892 1-770): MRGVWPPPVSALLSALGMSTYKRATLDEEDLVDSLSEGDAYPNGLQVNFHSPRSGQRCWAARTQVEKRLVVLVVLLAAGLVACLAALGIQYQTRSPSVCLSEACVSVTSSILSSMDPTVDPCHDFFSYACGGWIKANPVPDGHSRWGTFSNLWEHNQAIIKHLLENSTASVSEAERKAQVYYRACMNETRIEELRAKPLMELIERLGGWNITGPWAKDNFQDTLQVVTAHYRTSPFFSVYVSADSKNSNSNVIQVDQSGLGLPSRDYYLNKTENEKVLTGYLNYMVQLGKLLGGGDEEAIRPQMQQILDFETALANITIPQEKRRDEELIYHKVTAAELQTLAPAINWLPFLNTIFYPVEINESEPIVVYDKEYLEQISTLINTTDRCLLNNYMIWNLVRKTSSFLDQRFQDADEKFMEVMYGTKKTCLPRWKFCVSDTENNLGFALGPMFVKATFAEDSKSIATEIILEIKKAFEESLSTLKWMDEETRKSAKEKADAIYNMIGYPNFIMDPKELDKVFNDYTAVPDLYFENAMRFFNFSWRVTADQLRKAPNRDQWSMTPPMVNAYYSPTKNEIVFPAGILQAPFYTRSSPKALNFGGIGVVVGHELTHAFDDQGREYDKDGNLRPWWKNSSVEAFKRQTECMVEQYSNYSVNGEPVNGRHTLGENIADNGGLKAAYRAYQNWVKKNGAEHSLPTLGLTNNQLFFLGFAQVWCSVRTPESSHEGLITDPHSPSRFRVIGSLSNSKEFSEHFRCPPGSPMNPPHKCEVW
The experiment can be described thus: ECE activity assay, ir-ET-1 formed from big ET measured by radioimmunoassay. In kind it is biochemical. Here is the method:
ECE Activity Assay: The typical reaction mixture (50 μL) contained 10 μM big ET, 100 mM Hepes-KOH (pH 7.0), 0.25% Triton X-100, 0.01% NaN3, 0.2 mM phenylmethylsulfonyl fluoride, 50 μM pepstatin A, 0.1 mM leupeptin, the indicated concentration of compound (or DMSO for control), and the indicated amount of protein. The final DMSO concentration was kept at 3%. After incubation for 1.5 hours at 37° C., the reaction was stopped by the addition of EDTA to a final concentration of 10 mM. This final mixture was diluted (usually 100-fold) with the radioimmunoassay buffer (see below) and used for radioimmunoassay.
Radioimmunoassay (RIA): For the measurement of immunoreactive (ir) ET-1, the assay mixture (250 μL) contained the antibody against ET-1, an ET-1 sample, and [^125 I]ET-1 (7000 cpm) in the radioimmunoassay buffer (60 mM potassium phosphate (KPi), pH 7.4/10 mM, EDTA/8 mM, NaN3 /3% DMSO/0.1% bovine serum albumin/0.1% Tween 20). The order of the addition was ET-1 sample, followed by antibody, then [^125 I]ET-1. After incubation at 4° C. for 0.5 to 2 days, unbound ET-1 was co-precipitated by the addition of charcoal (2.4%, w/v)/dextran (0.24%, w/v) suspension (125 μL) in the RIA buffer with BSA replacedby gelatin (0.25%, w/v). The amount of ir-ET-1 was measured by counting the supernatant and determined from the standard curve. The cross-reactivity to big ET-1 was less than 0.01% and the detection limit was 1 Fmol.

In experiment [2] the test system is rats. The conditions noted are these: cited from earlier work.
Experiment [3] deals with rats. Conditions: cited from earlier work. This is another data set of the same source.
Experiment [4] deals with cultured bovine aortic endothelial cells. Conditions: intracellular accumulation; cited from earlier work.
The subject of experiment [5] is cultured vascular endothelial cells and smooth muscle cells. The conditions noted are these: cited from earlier work.
Experiment [6] has as its system pressor response of big ET. Conditions: micromolar concentrations; in vitro and in vivo; cited from earlier work.
The next experiment concerns anaesthetized pigs. Conditions: cited from earlier work.

pIC50: −log10 of the molar value. Counter-ions that a name gives are not always drawn. *1 amine or outer side, *2 acyl side, *3 side chain or, on linkers, in order; H or OH if unused. Where a SMILES comes first, the peptide text is derived from it. [ ]: non-standard residue; d: D form. The star is where a group is joined. Trp(1-formyl) = O=Cn1cc(C[C@H](N[*:1])C(=O)[*:2])c2ccccc21; Sta = CC(C)C[C@H](N)[C@@H](O)CC(=O)O; Suc = O=C(CCC(=O)[*:2])[*:1]; Isovaleryl = CC(C)CC(=O)*; Aun = NCCCCCCCCCCC(=O)O; Boc = CC(C)(C)OC(=O)*; NHOH = ON*

Broadly, the inhibition is the relative decrease from the control value, in per cent. For orientation: pIC50 means −log10 of the IC50, conventionally taken in molar units.

As for `CC(C)C[C@@H]1NC(=O)[C@@H](C(C)C)NC(=O)[C@@H]2CCCN2C(=O)[C@@H](CC(=O)O)NC(=O)[C@@H](Cc2c[nH]c3ccccc23)NC1=O` [BQ-123] (cyclo(L[dW][dD]P[dV])), the “ET-1-induced bronchoconstriction and tracheal smooth muscle contraction” value with allergic sheep was “block ET-1-induced bronchoconstriction and tracheal smooth muscle contraction”. Also, the survival rate result with mouse is reported as “significantly increased the survival rate”.

In the case of `CC[C@H](C)[C@H](NC(=O)OC(C)(C)C)C(=O)N[C@H](C(=O)N[C@@H](Cc1c[nH]c2ccccc12)C(=O)NO)[C@@H](C)CC` [Example 2, N-[(1,1-dimethylethoxy)carbonyl]-L-isoleucyl-L-isoleucyl-N-hydroxy-L-tryptophanamide] (Boc-Ile-Ile-Trp-{NHOH}), the inhibition at 100 µM in [1] (read-out: % ECE Inhibition) amounted to 47%.

Regarding `CC[C@H](C)[C@H](N)C(=O)N[C@H](C(=O)N[C@@H](Cc1c[nH]c2ccccc12)C(=O)NO)[C@@H](C)CC` [Example 6, L-isoleucyl-L--isoleucyl-N-hydroxy-L-tryptophanamide, monohydrochloride] (H-Ile-Ile-Trp-{NHOH}), the inhibition at 100 µM in experiment [1] (read-out: % ECE Inhibition) came out at 74%.

Consider `CC[C@H](C)[C@H](NC(=O)CCC(=O)O)C(=O)N[C@H](C(=O)N[C@@H](Cc1c[nH]c2ccccc12)C(=O)NO)[C@@H](C)CC` [Example 10] (Suc-Ile-Ile-Trp-{NHOH}), for which, in experiment [1] (read-out: IC50 (ECE inhibition)), the pIC50 was 5.33.

Regarding `CC[C@H](C)[C@H](NC(=O)CCCCCCCCCCN)C(=O)N[C@H](C(=O)N[C@@H](Cc1c[nH]c2ccccc12)C(=O)NOCc1ccccc1)[C@@H](C)CC` [Example 12], the inhibition at 100 µM in experiment [1] (read-out: % ECE Inhibition) was 65%.

On to `CC[C@H](C)[C@H](NC(=O)CCCCCCCCCCN)C(=O)N[C@H](C(=O)N[C@@H](Cc1c[nH]c2ccccc12)C(=O)NO)[C@@H](C)CC` [Example 13] (H-[Aun]IIW-{NHOH}), for which, in experiment [1] (read-out: % ECE Inhibition), the inhibition at 10 µM came to 22% and the inhibition at 50 µM amounted to 57%.

For the molecule `COc1cccc(Oc2c(NS(=O)(=O)c3ccc(C(C)(C)C)cc3)ncnc2OCCO)c1` [RO 46-2005], in the experiment with rats [2], the “efficacy in acute renal ischemia model” value was “effective”. Further, the “efficacy in subarachnoid hemorrhage model” value with rats [3] is given as “effective”.

Turning to `CC(C)CC(=O)N[C@H](C(=O)N[C@H](C(=O)N[C@@H](CC(C)C)[C@@H](O)CC(=O)N[C@@H](C)C(=O)N[C@@H](CC(C)C)[C@@H](O)CC(=O)O)C(C)C)C(C)C` [pepstatin] (Isovaleryl-VV[Sta]A[Sta]-OH), in experiment [4], the ET-1 production entry is “did not inhibit ET-1 production”.

On to `CC(C)C[C@H](NP(=O)(O)O[C@@H]1O[C@@H](C)[C@H](O)[C@@H](O)[C@H]1O)C(=O)N[C@@H](Cc1c[nH]c2ccccc12)C(=O)O` [phosphoramidon], for which the “intracellular conversion of big ET-1 to ET-1” value in experiment [5] is given as “inhibit the intracellular conversion of big ET-1 to ET-1”. In experiment [6], the “pressor response of big ET” value is listed as “block the pressor response of big ET”. For the same molecule, in the experiment with anaesthetized pigs, the “plasma ET-1 level” value is reported as “did not have any effect” and the “vasoconstrictor effects evoked by intravenous big ET-1” value is “inhibit vasoconstrictor effects”.

Regarding “N-[(1,1-dimethyl-ethoxy) carbonyl]-L-isoleucyl-L-isoleuyl-N-hydroxy-D-tryptophanamide [Example 3]”, the “% ECE Inhibition” value in experiment [1] (Conc. 100 μM) is recorded as 46%.

“N-[(1,1-dimethyl-ethoxy) carbonyl]-L-isoleucyl-N-hydroxy-L-tryptophanamide [Example 4]”: the “% ECE Inhibition” value in experiment [1] (Conc. 100 μM) is 44%.

With “N-[(1,1-dimethylethoxy)-carbonyl]-L-α-aspartyl-L-isoleucyl-n-isoleucyl-1-formyl-N-hydroxy-n-tryptophanamide (Boc-DII[Trp(1-formyl)]-{NHOH}; not fully specified; printed as N-[(1,1-dimethylethoxy)-carbonyl]-L-α-aspartyl-L-isoleucyl-n-isoleucyl-1-formyl-N-hydroxy-n-tryptophanamide) [Example 22]”, the “% ECE Inhibition” value in [1] (Conc. 10 μM) worked out at 53%; in [1] (Conc. 40 μM) it was 73%; in experiment [1] (Conc. 100 μM) it was 87%.
